The AC50 is the concentration giving half of the maximal activity seen. Read a high AC50 as activity only at high concentration.

Sequence of PKM2 (P14618 whole entry): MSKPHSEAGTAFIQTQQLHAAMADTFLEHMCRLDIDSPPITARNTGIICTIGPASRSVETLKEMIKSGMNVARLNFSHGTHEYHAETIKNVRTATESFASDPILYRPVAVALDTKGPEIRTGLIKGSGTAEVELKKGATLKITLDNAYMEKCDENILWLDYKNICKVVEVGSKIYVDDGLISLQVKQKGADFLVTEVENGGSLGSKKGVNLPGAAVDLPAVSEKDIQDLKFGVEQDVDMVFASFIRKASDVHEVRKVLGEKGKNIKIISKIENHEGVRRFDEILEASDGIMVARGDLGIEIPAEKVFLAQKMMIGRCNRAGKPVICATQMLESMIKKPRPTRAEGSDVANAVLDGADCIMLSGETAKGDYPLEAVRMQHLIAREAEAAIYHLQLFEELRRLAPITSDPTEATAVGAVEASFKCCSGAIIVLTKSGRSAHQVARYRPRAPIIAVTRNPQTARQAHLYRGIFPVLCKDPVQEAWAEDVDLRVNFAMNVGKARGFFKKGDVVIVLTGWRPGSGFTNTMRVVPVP

This assay addresses PKM2 (Homo sapiens, UniProt P14618). The assay is described as follows: PKM2 Assay. It counts as biochemical. The settings on record: activation of PKM2; Tables 1-4. As to the method: • PKM2 stock enzyme solution was diluted in Reaction Buffer • 2 μL of compound was added into each well first, and then 180 μL of the Reaction Mix was added. • Reaction mixture with compound (without ADP) was incubated for 30 minutes at 4° C. • Plates were re-equilibrated to room temperature prior to adding 20 μL ADP to initiate the reaction. • Reaction progress was measured as changes in absorbance at 340 nm wavelength at room temperature (25° C.) Reaction Mix:
PKM2 (50 ng/well), ADP (0.7 mM), PEP (0.15 mM), NADH (180 μM), LDH (2 units) in Reaction Buffer
Compound `Cc1cc(NS(=O)(=O)c2ccc3c(c2)N(C)C(=O)OC3)ccc1F` gave an AC50 of less than 100 nM.

In turn, `CN1C(=O)OCc2ccc(S(=O)(=O)Nc3ccc(F)c(Cl)c3)cc21` registered an AC50 of less than 100 nM.

With `CN1C(=O)OCc2cc(S(=O)(=O)Nc3ccc(F)c(Cl)c3)ccc21`, the AC50 was 100 to 500 nM.

`Cc1cc(NS(=O)(=O)c2ccc3c(c2)COC(=O)N3C)ccc1F` had an AC50 of 100 to 500 nM.

Turning to `CN1Cc2cc(S(=O)(=O)Nc3ccc(F)c(Cl)c3)ccc2OC1=O`, the AC50 was in the range of 100 to 500 nM.

Consider `Cc1cc(NS(=O)(=O)c2ccc3c(c2)CN(C)C(=O)O3)ccc1F`, for which the AC50 was 100 to 500 nM.

In the case of `O=C1Oc2ccc(S(=O)(=O)Nc3ccc(F)c(Cl)c3)cc2CN1Cc1ccccc1`, the AC50 was more than 500 nM.

As for `Cc1cc(C)cc(NS(=O)(=O)c2ccc3c(c2)NC(=O)CO3)c1`, the AC50 is more than 500 nM.

In the case of `O=C1COc2ccc(S(=O)(=O)Nc3ccc(F)cc3)cc2N1`, the AC50 is more than 500 nM.

Compound `O=C1COc2ccc(S(=O)(=O)Nc3ccc4c(c3)OCCO4)cc2N1` registered an AC50 of more than 500 nM.

On to `COc1ccc(NS(=O)(=O)c2ccc3c(c2)NC(=O)CO3)cc1`, for which the AC50 was more than 500 nM.

In turn, `CN1C(=O)COc2ccc(S(=O)(=O)Nc3ccc4c(c3)OCCO4)cc21` returned a concentration at half-maximal activity (AC50) of more than 500 nM.

In the case of `Cc1cc(C)cc(NS(=O)(=O)c2ccc3c(c2)N(C)C(=O)CO3)c1`, the AC50 was less than 100 nM.

`CN1C(=O)COc2ccc(S(=O)(=O)Nc3ccc(F)cc3)cc21` gave an AC50 of more than 500 nM.

`COc1ccc(NS(=O)(=O)c2ccc3c(c2)N(C)C(=O)CO3)cc1` came in with an AC50 of more than 500 nM.

Compound `Cc1cc(NS(=O)(=O)c2ccc3c(c2)N(C)C(=O)CO3)ccc1F` showed an AC50 of less than 100 nM.

The compound `CN1C(=O)COc2ccc(S(=O)(=O)Nc3ccc(F)c(Cl)c3)cc21` displayed an AC50 of less than 100 nM.

In turn, `CN1C(=O)COc2ccc(S(=O)(=O)Nc3cccc(Cl)c3)cc21` returned an AC50 of less than 100 nM.

As to `CN1C(=O)COc2ccc(S(=O)(=O)Nc3ccc4c(c3)OCO4)cc21`, the concentration at half-maximal activity (AC50) was less than 100 nM.

On to `CN1CC(=O)Oc2ccc(S(=O)(=O)Nc3cccc(Cl)c3)cc21`, for which the AC50 is less than 100 nM.

Compound `Cc1cc(NS(=O)(=O)c2ccc3c(c2)N(C)CC(=O)O3)ccc1F` returned an AC50 of less than 100 nM.

As for `CN1CC(=O)Oc2ccc(S(=O)(=O)Nc3ccc(F)c(Cl)c3)cc21`, the AC50 was less than 100 nM.

The values above are taken from patent US10087169B2, “Bicyclic PKM2 activators” (Agios Pharmaceuticals, Inc., priority 2010, dated 2018).
